{
  "source": "patent US20070122376A1",
  "about": "“Pheromones and method of preventing infestation of Contarinia nasturtii” (priority 2004, published 2007)",
  "key": {"[1]": {"system": "male antenna", "test": "GC-EAD electrophysiological recording of male antennal response", "design": "species or system Contarinia nasturtii", "settings": "natural peaks of ovipositor extract, identified by mass spectra and coelution with synthetics", "experimental": "The pots with infested soil were put in glass cages (28×28×33 cm) and kept at L/D 18/6, 25° C., and RH 70% for the adults to emerge. After emergence, males and females were transferred to separate cages. Females were kept under the conditions mentioned and males were kept at L/D 18/6, 15° C., and RH 75%. […] The ovipositors were collected in a vial kept in liquid nitrogen and then extracted for 1-2 min redistilled hexane (LabScan). Extracts were kept in sealed glass capillaries at −18° C. until use.\nMale antennal response to ovipositor extracts was analyzed by gas chromatography 25 with electroantennographic detection (GC-EAD). The GC used was a Hewlett Packard 6890 GC with flame ionization detection and an Innowax column (30m×0.25 mm ID, Hewlett Packard, USA). The column temperature was programmed from 80° C. (2 min hold) to 230° C. at 10° C./min. The antennal recordings were made using a Plexiglass holder with two wells connected to an amplifier by gold wire electrodes (JoAC, Lund, Sweden; Zhang et al., 1997; Hillbur, 2001). Male insects were mounted in the holder as described by Hillbur et al. (2000). […] Antennal signals were amplified (JoAC) before they were recorded and analyzed with ElectroAntennoGraphy software (Syntech, Hilversum, The Netherlands)."}, "[2]": {"system": "male C. nasturtii", "test": "Wind tunnel assay of male response (landing on odour source)", "type": "in vivo, Contarinia nasturtii", "settings": "for landings on the odor source, response to single component: each component tested individually at the concentrations indicated (FIG. 4), N>=20; for males flying towards the odour source: single components tested individually", "experimental": "Calling females were collected from the laboratory culture and submersed in batches in hexane (p.a. grade) for 15 min at room temperature. The supernatant was then decanted and concentrated to the highest concentration tested by blowing off the hexane with N2.\nWind tunnel experiments were performed in the 2nd to 4th hour of the photophase at 22° C. and 73% r.h. in a wind tunnel described in detail by Rauscher et al. (1984). Compounds were diluted in hexane (p.a. grade). For the bioassays, 10 p 1 of the stimulus to be tested was applied onto a piece of fitter paper (Chromatographiepapier “Schleicher & Schuell AG” Auer-Bittmann Soulié AG, Zurich, Switzerland, 69.2 gr/m2, 1 cm^2)which was then placed in the air stream at least 20 sec before the first male was tested. For each stimulus, a series of five males were tested individually, requiring a total of 5-10 min for each series. For each series, a new piece of filter paper was loaded with the respective stimulus.\nMales were kept individually in glass tubes (10 cm, 15 mm i.d.) closed at one end with a piece of screen (mesh size 1×1 mm) until they were tested. With these tubes they were transferred into the wind tunnel, where the tube was placed on a pole in horizontal position with the opening upwind, at a distance of 130 cm downwind from the odor source. Time recording was then started and the following steps recorded. Activation by wing-fanning, take off, directed flight towards the odor source, flights closer than 30 cm from the source (“close in”), landing on the source or elsewhere. The test was stopped when no activity or take off was registered during […] or when the insect landed elsewhere.\nOf the recorded parameters only the number of successful landings on the source were analyzed"}},
  "data": [
    {"smiles": "CC[C@@H](CCCCCC[C@H](C)OC(C)=O)OC(C)=O", "note": "[(2S,9S)-diacetoxyundecane, (2S,9S)-Diacetoxyundecane]", "values": [
      {"measurement": "male antennal response (GC-EAD)", "setting": "[1]", "value": "EAD-active"},
      {"measurement": "landings on the odor source, response to single component", "setting": "[2]", "value": 0},
      {"measurement": "males flying towards the odour source", "setting": "[2]", "value": "no males flew towards the odour source"}
    ]},
    {"smiles": "CCCCCCCCC[C@H](C)OC(C)=O", "note": "[(2S)-acetoxyundecane, (2S)-Acetoxyundecane]", "values": [
      {"measurement": "most attractive concentration of (2S)-acetoxyundecane in blend", "setting": "[2]; blends with 1.5 ng/dispenser (2S,9S)- and 3.0 ng/dispenser (2S,10S)-diacetoxyundecane", "value": 0.03, "unit": "ng/dispenser"},
      {"measurement": "effect of higher concentrations of (2S)-acetoxyundecane on proportion of male landing", "setting": "[2]; concentrations higher than 0.03 ng/dispenser in blend with 1.5 ng 2S,9S and 3.0 ng 2S,10S", "value": "inhibitory"},
      {"measurement": "landings on the odor source, response to single component", "setting": "[2]", "value": 0},
      {"measurement": "males flying towards the odour source", "setting": "[2]", "value": "no males flew towards the odour source"}
    ]},
    {"smiles": "CC(=O)O[C@@H](C)CCCCCCC[C@H](C)OC(C)=O", "note": "[(2S,10S)-diacetoxyundecane, (2S,10S)-Diacetoxyundecane]", "values": [
      {"measurement": "male antennal response (GC-EAD)", "setting": "[1]", "value": "EAD-active"},
      {"measurement": "landings on the odor source, response to single component", "setting": "[2]", "value": 0},
      {"measurement": "males flying towards the odour source", "setting": "[2]", "value": "no males flew towards the odour source"}
    ]}
  ]
}
